23 compounds from patent publication US20250270209A1 (INTERLINE THERAPEUTICS, INC., priority 2022, published 2025) can be followed below.

Test [1] has as its target T1, wild type LRRK2 overexpressed in recombinant HEK-293T cells (Homo sapiens, UniProt Q5S007).
T1 construct: host or cells: HEK293T (transient transfection with pCMV-LRRK2 WT plasmid)
Briefly: pS935 LRRK2 Cell Assay (HTRF, phospho-LRRK2 Ser935). Format: cell-based. The note with it: LRRK2 Inhibition, Table 8, 2 hours compound incubation. In outline: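 HEK-293T cells transiently transfected with wild-type LRRK2 for 24 h, plated overnight, then treated 2 h at 37° C with compound (top 10 μM, 3-fold, 9 doses, duplicates, 0.2% DMSO). Lysates probed overnight at 23° C by sandwich HTRF for pSer935; 665/615 nm ratio read.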
In general terms: In TR-FRET formats the signal depends on donor and acceptor labels being close together.

A further test has as its target LRRK2 wild type enzyme (Homo sapiens, UniProt Q5S007). Description: Biochemical Assay: LRRK2 TR-FRET (LanthaScreen) kinase assay with LRRKtide substrate. The note with it: LRRK2 Inhibition, Table 8. In a few lines: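 Human wild-type LRRK2 (3 nM) preincubated 15 min with compound (11-point, 3-fold, top 10 μM), then reacted 120 min at 23 °C with 400 nM LRRKtide and 25 μM ATP, pH 8.0. Stopped with EDTA; Tb-anti-pLRRKtide TR-FRET read after 30 min.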

Chain of LRRK2 wild type enzyme (Q5S007 whole entry): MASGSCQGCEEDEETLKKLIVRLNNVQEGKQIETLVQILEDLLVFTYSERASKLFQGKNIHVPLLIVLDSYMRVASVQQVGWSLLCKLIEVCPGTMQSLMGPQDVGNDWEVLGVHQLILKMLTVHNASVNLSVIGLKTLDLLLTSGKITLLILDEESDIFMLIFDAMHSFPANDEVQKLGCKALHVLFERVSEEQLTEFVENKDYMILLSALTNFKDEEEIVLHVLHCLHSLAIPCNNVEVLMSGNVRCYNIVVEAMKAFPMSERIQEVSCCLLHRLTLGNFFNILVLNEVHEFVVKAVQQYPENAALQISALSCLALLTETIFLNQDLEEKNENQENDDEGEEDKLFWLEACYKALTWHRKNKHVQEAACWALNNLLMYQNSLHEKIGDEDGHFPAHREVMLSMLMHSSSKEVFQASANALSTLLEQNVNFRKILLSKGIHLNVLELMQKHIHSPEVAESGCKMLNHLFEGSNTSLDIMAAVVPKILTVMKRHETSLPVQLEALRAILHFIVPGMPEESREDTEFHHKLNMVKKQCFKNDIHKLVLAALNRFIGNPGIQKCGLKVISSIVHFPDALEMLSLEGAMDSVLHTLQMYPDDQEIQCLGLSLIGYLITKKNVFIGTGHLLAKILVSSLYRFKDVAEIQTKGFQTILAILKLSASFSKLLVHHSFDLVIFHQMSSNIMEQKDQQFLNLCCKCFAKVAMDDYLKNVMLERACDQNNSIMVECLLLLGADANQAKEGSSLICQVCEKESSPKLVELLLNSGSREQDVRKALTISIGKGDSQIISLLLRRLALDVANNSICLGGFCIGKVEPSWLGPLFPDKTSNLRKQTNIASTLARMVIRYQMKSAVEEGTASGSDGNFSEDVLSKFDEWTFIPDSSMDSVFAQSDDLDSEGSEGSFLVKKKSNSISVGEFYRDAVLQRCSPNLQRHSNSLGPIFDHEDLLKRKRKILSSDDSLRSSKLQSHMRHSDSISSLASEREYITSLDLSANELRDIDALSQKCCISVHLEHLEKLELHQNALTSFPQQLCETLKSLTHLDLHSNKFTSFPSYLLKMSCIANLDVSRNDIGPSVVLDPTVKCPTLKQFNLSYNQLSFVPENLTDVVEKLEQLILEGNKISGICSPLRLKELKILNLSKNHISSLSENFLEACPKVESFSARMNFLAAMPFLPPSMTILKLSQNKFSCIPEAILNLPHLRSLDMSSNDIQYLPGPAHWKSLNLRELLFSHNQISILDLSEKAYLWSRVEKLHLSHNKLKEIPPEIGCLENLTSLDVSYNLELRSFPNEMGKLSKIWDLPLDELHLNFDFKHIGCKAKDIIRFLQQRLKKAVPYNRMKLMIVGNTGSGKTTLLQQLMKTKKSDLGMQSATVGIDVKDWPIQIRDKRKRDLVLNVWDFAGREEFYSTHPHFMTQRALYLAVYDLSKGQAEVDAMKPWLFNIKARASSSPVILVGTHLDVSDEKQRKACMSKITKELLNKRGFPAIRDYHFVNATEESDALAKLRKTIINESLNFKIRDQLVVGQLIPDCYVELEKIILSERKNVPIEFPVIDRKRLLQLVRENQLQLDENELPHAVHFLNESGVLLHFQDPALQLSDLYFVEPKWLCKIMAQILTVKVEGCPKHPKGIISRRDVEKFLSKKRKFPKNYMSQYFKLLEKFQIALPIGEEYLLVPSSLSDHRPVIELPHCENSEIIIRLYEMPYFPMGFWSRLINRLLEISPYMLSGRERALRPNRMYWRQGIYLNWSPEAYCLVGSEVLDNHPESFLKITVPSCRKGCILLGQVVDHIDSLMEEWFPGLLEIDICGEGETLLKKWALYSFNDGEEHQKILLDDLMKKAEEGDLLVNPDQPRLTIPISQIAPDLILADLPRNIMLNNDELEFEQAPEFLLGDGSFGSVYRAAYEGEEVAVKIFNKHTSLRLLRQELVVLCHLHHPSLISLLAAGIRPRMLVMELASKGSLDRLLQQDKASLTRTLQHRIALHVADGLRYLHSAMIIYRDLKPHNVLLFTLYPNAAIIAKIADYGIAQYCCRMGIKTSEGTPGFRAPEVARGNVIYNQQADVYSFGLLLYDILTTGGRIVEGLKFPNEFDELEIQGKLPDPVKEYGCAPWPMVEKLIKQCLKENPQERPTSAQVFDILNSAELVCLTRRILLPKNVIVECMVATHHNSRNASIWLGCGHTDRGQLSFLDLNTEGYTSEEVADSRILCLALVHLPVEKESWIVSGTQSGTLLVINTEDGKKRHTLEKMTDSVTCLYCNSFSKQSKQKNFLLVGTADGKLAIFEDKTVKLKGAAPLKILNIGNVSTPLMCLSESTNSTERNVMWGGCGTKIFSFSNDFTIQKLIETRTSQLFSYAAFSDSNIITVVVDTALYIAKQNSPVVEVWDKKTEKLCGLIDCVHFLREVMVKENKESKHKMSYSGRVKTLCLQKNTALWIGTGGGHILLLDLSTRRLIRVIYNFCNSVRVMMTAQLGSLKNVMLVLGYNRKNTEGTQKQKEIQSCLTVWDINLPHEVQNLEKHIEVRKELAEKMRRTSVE
T1 sequence (Q5S007 whole entry): as above

Broadly, the IC50 is the midpoint of a concentration-inhibition curve. `C[C@@H]1C[C@H](n2c(C3CCN(C(=O)c4cccnn4)CC3)nc3cnc4ccc(C#N)cc4c32)CCO1` [Compound 117, 1-[(2R,4R)-2-methyloxan-4-yl]-2-[1-(pyridazine-3-carbonyl)piperidin-4-yl]-1H-imidazo[4,5-c]quinoline-8-carbonitrile]: the figures for the IC50 (in test [1]; against LRRK2 wild type enzyme) were 503 nM and 1.24 nM, respectively.
In the case of `C[C@@H]1C[C@H](n2c(CC(=O)NC3(C)CCOC3)nc3cnc4ccc(Cl)cc4c32)CCO1` (stereo partly drawn) [Compound 333, N-(3-methyltetrahydro-3-furyl){3-[(2R,4R)-2-methyltetrahydro-2H-pyran-4-yl]-12-chloro-3,5,8-triazatricyclo[7.4.0.0^2,6]trideca-1(9),2(6),4,7,10,12-hexaen-4-yl}acetamide], the values for the IC50 (in test [1]; on LRRK2 wild type enzyme) were 30.7 nM and 1.27 nM, respectively.
For `COc1ccnc(C)c1NC(=O)Cc1nc2cnc3ccc(C#N)cc3c2n1[C@@H]1CCO[C@H](C)C1` [Compound 227, N-(4-methoxy-2-methyl-3-pyridyl){3-[(2R,4R)-2-methyltetrahydro-2H-pyran-4-yl]-12-cyano-3,5,8-triazatricyclo[7.4.0.0^2,6]trideca-1,4,6,8,10,12-hexaen-4-yl}acetamide] the same measures were 14.4 nM and 0.359 nM.
The like results for `C[C@@H]1C[C@H](n2c(CNc3nccn3C)nc3cnc4ccc(C#N)cc4c32)CCO1` [Compound 12, 2-{[(1-methyl-1H-imidazol-2-yl)amino]methyl}-1-[(2R,4R)-2-methyloxan-4-yl]-1H-imidazo[4,5-c]quinoline-8-carbonitrile] were, in that order, greater than 10000 nM and 9.07 nM.
For `Cc1nc(C)c(NC(=O)Cc2nc3cnc4ccc(Cl)cc4c3n2[C@@H]2CCO[C@H](C)C2)c(C)n1` [Compound 217, N-(2,4,6-trimethyl-5-pyrimidinyl){3-[(2R,4R)-2-methyltetrahydro-2H-pyran-4-yl]-12-chloro-3,5,8-triazatricyclo[7.4.0.0^2,6]trideca-1,4,6,8,10,12-hexaen-4-yl}acetamide] the same measures were 5.53 nM and 0.294 nM.
Turning to `C[C@@H]1C[C@H](n2c(CC(=O)Nc3cn(C)c(C(F)(F)F)cc3=O)nc3cnc4ccc(C#N)cc4c32)CCO1` [Compound 232, N-[1-methyl-4-oxo-6-(trifluoromethyl)-1,4-dihydro-3-pyridyl]{3-[(2R,4R)-2-methyltetrahydro-2H-pyran-4-yl]-12-cyano-3,5,8-triazatricyclo[7.4.0.0^2,6]trideca-1,4,6,8,10,12-hexaen-4-yl}acetamide], the IC50 in test [1] came to 36.9 nM; on LRRK2 wild type enzyme, 0.788 nM.
As to `Cc1nn(C)cc1NC(=O)Cc1nc2cnc3ccc(C#N)cc3c2n1[C@@H]1CCO[C@H](C)C1` [Compound 231, N-(1-methyl-3-methyl-4-pyrazolyl){3-[(2R,4R)-2-methyltetrahydro-2H-pyran-4-yl]-12-cyano-3,5,8-triazatricyclo[7.4.0.0^2,6]trideca-1,4,6,8,10,12-hexaen-4-yl}acetamide], the IC50 in test [1] was determined as 13.6 nM; at LRRK2 wild type enzyme, 0.621 nM.
For the compound `C[C@@H]1C[C@H](n2c(C3CC(=O)N(C4COC4)C3)nc3cnc4ccc(C#N)cc4c32)CCO1` (stereo partly drawn) [Compound 46, 1-[(2R,4R)-2-methyloxan-4-yl]-2-[1-(oxetan-3-yl)-5-oxopyrrolidin-3-yl]-1H-imidazo[4,5-c]quinoline-8-carbonitrile], the figures for the IC50 (in test [1]; against LRRK2 wild type enzyme) were 1330 nM and 5.91 nM, respectively.
The like results for `C[C@@H]1C[C@H](n2c(CC(=O)NC(C)(C)c3ccccn3)nc3cnc4ccc(C#N)cc4c32)CCO1` [Compound 185, 2-{8-cyano-1-[(2R,4R)-2-methyloxan-4-yl]-1H-imidazo[4,5-c]quinolin-2-yl}-N-[2-(pyridin-2-yl)propan-2-yl]acetamide] were, in that order, 2.56 nM and 0.42 nM.
For `Cc1c(NC(=O)Cc2nc3cnc4ccc(C#N)cc4c3n2[C@@H]2CCO[C@H](C)C2)cnn1C` [Compound 237, N-(1-methyl-5-methyl-4-pyrazolyl){3-[(2R,4R)-2-methyltetrahydro-2H-pyran-4-yl]-12-cyano-3,5,8-triazatricyclo[7.4.0.0^2,6]trideca-1,4,6,8,10,12-hexaen-4-yl}acetamide] the same measures were 23.4 nM and 0.405 nM.
For `C[C@@H]1C[C@H](n2c(CN3CCOCC3=O)nc3cnc4ccc(C#N)cc4c32)CCO1` [Compound 78, 1-[(2R,4R)-2-methyloxan-4-yl]-2-[(3-oxomorpholin-4-yl)methyl]-1H-imidazo[4,5-c]quinoline-8-carbonitrile] the same measures were 1010 nM and 12.2 nM.
For the compound `C[C@@H]1C[C@H](n2c(CNC(=O)OC(C)(C)C)nc3cnc4ccc(C#N)cc4c32)CCO1` [Compound 33, tert-butyl N-({8-cyano-1-[(2R,4R)-2-methyloxan-4-yl]-1H-imidazo[4,5-c]quinolin-2-yl}methyl)carbamate], the concentration for half-maximal inhibition (IC50) in test [1] turned out to be 396 nM; against LRRK2 wild type enzyme, 5.24 nM.
For `C[C@@H]1C[C@H](n2c(C3CCC(=O)N(CC4CC4)C3)nc3cnc4ccc(C#N)cc4c32)CCO1` (stereo partly drawn) [Compound 50, 2-[1-(cyclopropylmethyl)-6-oxopiperidin-3-yl]-1-[(2R,4R)-2-methyloxan-4-yl]-1H-imidazo[4,5-c]quinoline-8-carbonitrile] the same measures were 875 nM and 7.5 nM.
For `C[C@@H]1C[C@H](n2c(CC(=O)Nc3cnc(C(F)(F)F)n(C)c3=O)nc3cnc4ccc(C#N)cc4c32)CCO1` [Compound 220, N-[1-methyl-6-oxo-2-(trifluoromethyl)-1,6-dihydro-5-pyrimidinyl]{3-[(2R,4R)-2-methyltetrahydro-2H-pyran-4-yl]-12-cyano-3,5,8-triazatricyclo[7.4.0.0^2,6]trideca-1,4,6,8,10,12-hexaen-4-yl}acetamide] the same measures were 4.25 nM and 0.447 nM.
For `C[C@@H]1C[C@H](n2c(CC(=O)NC3(C)CCC3)nc3cnc4ccc(C#N)cc4c32)CCO1` [Compound 303, N-1-methylcyclobutyl{3-[(2R,4R)-2-methyltetrahydro-2H-pyran-4-yl]-12-cyano-3,5,8-triazatricyclo[7.4.0.0^2,6]trideca-1(13),2(6),4,7,9,11-hexaen-4-yl}acetamide] the same measures were 47 nM and 1.29 nM.
For the compound `C[C@@H]1C[C@H](n2c(CC(=O)N[C@@H]3CCOC3)nc3cnc4ccc(Cl)cc4c32)CCO1` [Compound 145, 2-{8-chloro-1-[(2R,4R)-2-methyloxan-4-yl]-1H-imidazo[4,5-c]quinolin-2-yl}-N-[(3R)-oxolan-3-yl]acetamide], the IC50 in test [1] came to 13.5 nM; against LRRK2 wild type enzyme, 0.616 nM.
For `CC(=O)N1CCC(c2nc3cnc4ccc(C#N)cc4c3n2[C@@H]2CCO[C@H](C)C2)CC1` [Compound 116, 2-(1-acetylpiperidin-4-yl)-1-[(2R,4R)-2-methyloxan-4-yl]-1H-imidazo[4,5-c]quinoline-8-carbonitrile] the same measures were 343 nM and 1.26 nM.
The like results for `C[C@@H]1C[C@H](n2c(CC(=O)NCC3(CO)CC3)nc3cnc4ccc(C#N)cc4c32)CCO1` [Compound 242, N-[1-(hydroxymethyl)cyclopropyl]methyl{3-[(2R,4R)-2-methyltetrahydro-2H-pyran-4-yl]-12-cyano-3,5,8-triazatricyclo[7.4.0.0^2,6]trideca-1(9),2(6),4,7,10,12-hexaen-4-yl}acetamide] were, in that order, 106 nM and 0.69 nM.
As for `Cc1nn(C)c(Cl)c1NC(=O)Cc1nc2cnc3ccc(C#N)cc3c2n1[C@@H]1CCO[C@H](C)C1` [Compound 296, N-(5-chloro-1-methyl-3-methyl-4-pyrazolyl){3-[(2R,4R)-2-methyltetrahydro-2H-pyran-4-yl]-12-cyano-3,5,8-triazatricyclo[7.4.0.0^2,6]trideca-1,4,6,8,10,12-hexaen-4-yl}acetamide], the IC50 in test [1] was 7.61 nM; on LRRK2 wild type enzyme, 0.462 nM.
On to `C[C@@H]1C[C@H](n2c(CC(=O)Nc3ncc(C4CC4)cn3)nc3cnc4ccc(C#N)cc4c32)CCO1` [Compound 344, N-(5-cyclopropyl-2-pyrimidinyl){3-[(2R)-2-methyltetrahydro-2H-pyran-4-yl]-12-cyano-3,5,8-triazatricyclo[7.4.0.0^2,6]trideca-1(9),2(6),4,7,10,12-hexaen-4-yl}acetamide], for which the IC50 came out at 4.11 nM in test [1] and 0.453 nM on LRRK2 wild type enzyme.
The like results for `C[C@@H]1C[C@H](n2c(CC(=O)N[C@H]3C[C@@H](OCc4ccn(C)n4)C3)nc3cnc4ccc(C#N)cc4c32)CCO1` [Compound 367, N-{(1s,3s)-3-[(1-methyl-3-pyrazolyl)methoxy]cyclobutyl}{3-[(2R,4R)-2-methyltetrahydro-2H-pyran-4-yl]-12-cyano-3,5,8-triazatricyclo[7.4.0.0^2,6]trideca-1,4,6,8,10,12-hexaen-4-yl}acetamide] were, in that order, 94.8 nM and 0.597 nM.
For `C[C@@H]1C[C@H](n2c(CC(=O)NC[C@H]3CCOC3)nc3cnc4ccc(C#N)cc4c32)CCO1` [Compound 172, 2-{8-cyano-1-[(2R,4R)-2-methyloxan-4-yl]-1H-imidazo[4,5-c]quinolin-2-yl}-N-{[(3R)-oxolan-3-yl]methyl}acetamide] the same measures were 37.6 nM and 0.567 nM.
On to `C[C@@H]1C[C@H](n2c(CC(=O)NC3CC3(C)C)nc3cnc4ccc(C#N)cc4c32)CCO1` (stereo partly drawn) [Compound 252, N-2,2-dimethylcyclopropyl{3-[(2R,4R)-2-methyltetrahydro-2H-pyran-4-yl]-12-cyano-3,5,8-triazatricyclo[7.4.0.0^2,6]trideca-1,4,6,8,10,12-hexaen-4-yl}acetamide], for which the IC50 in test [1] is 18.1 nM; against LRRK2 wild type enzyme, 0.645 nM.
